Assays:
CYP1A2 = CYP1A2 (Homo sapiens, UniProt P05177); test: CYP1A2 inhibition in human liver microsomes (phenacetin O-deethylation); type: in vitro ADME; settings: 100 μM bergenin, pooled HLMs
Procedure: (§1) All incubations were performed in triplicate, and the mean values were utilized.
(§2) There was a 3 min pre-incubation period (at 37 °C) before the reaction was initiated by adding an NADPH-generating system. The reaction was terminated by adding a 100 μL acetonitrile (10% trichloroacetic acid for CYP2A6) internal standard mix, and the solution was placed on ice. The mixture was centrifuged at 12,000 rpm for 10 min, and an aliquot (50 μL) of the supernatant was transferred for HPLC analysis. The instrument used in this study were Agilent 1260 series instrument (Palo Alto, CA, USA) with DAD and FLD detector, and the quantitative assay for the corresponding metabolites was performed as previously reported (Lang et al. [2017]; Zhang et al. [2017]).

CYP3A4 [1] = target: T1, CYP3A4 (Homo sapiens, UniProt P08684); test: CYP3A4 inhibition in human liver microsomes (testosterone 6β-hydroxylation); type: in vitro ADME
Procedure: as §1, §2
The enzyme kinetic parameters for the probe reaction were estimated from the best fit line using least-squares linear regression of the inverse substrate concentration versus the inverse velocity (Lineweaver–Burk plots), and the mean values were used to calculate Vmax and Km. […]

CYP2A6 = target: T2, CYP2A6 (Homo sapiens, UniProt P11509); test: CYP2A6 inhibition in human liver microsomes (coumarin 7-hydroxylation); type: in vitro ADME; settings: 100 μM bergenin, pooled HLMs
T2 construct: from tissue; host or cells: pooled human liver microsomes
T2 sequence (P11509 1-494): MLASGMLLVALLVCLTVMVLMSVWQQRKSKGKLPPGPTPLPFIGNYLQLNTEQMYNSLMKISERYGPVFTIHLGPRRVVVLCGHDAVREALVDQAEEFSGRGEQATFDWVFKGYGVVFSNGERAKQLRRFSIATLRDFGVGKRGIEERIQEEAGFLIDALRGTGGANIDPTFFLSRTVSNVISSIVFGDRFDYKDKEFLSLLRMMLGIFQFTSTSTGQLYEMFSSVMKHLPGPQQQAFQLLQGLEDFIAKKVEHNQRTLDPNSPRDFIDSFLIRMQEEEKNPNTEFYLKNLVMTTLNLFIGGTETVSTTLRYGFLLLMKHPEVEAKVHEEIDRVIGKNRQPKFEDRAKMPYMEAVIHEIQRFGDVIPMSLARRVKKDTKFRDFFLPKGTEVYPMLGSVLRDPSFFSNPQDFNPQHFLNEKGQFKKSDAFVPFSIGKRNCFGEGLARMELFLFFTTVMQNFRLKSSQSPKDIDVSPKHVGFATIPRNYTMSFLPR
Procedure: as §1, §2

CYP2E1 [2] = target: T3, CYP2E1 (Homo sapiens, UniProt P05181); test: CYP2E1 inhibition in human liver microsomes (chlorzoxazone 6-hydroxylation); type: in vitro ADME
T3 construct: CYP2E1 catalyzed reactions (chlorzoxazone 6-hydroxylation) in pooled HLM; from tissue; host or cells: pooled human liver microsomes
Procedure: as §1, §2
(§3) The enzyme kinetic parameters for the probe reaction were estimated from the best fit line using least-squares linear regression of the inverse substrate concentration versus the inverse velocity (Lineweaver–Burk plots), and the mean values were used to calculate Vmax and Km. Inhibition data from the experiments that were conducted using multiple compound concentrations were represented by Dixon plots, and inhibition constant (Ki) values were calculated using non-linear regression according to the following equation: v = (VmaxS)/(Km(1 + I/Ki) + S), where I is the concentration of the compound, Ki is the inhibition constant, S is the concentration of the substrate and Km is the substrate concentration at half the maximum velocity (Vmax) of the reaction. The mechanism of the inhibition was inspected using the Lineweaver–Burk plots and the enzyme inhibition models. The data comparison was performed using the Student’s t-test and performed using IBM SPSS statistics 20 (SPSS Inc., Chicago, IL).

CYP2D6 = CYP2D6 (Homo sapiens, UniProt P10635); test: CYP2D6 inhibition in human liver microsomes (dextromethorphan O-demethylation); type: in vitro ADME; settings: 100 μM bergenin, pooled HLMs
Procedure: as §1, §2

CYP2C9 [3] = target: T4, CYP2C9 (Homo sapiens, UniProt P11712); test: CYP2C9 inhibition in human liver microsomes (diclofenac 4′-hydroxylation); type: in vitro ADME; settings: pooled HLMs
Procedure: as §1, §2, §3

CYP2C19 = CYP2C19 (Homo sapiens, UniProt P33261); test: CYP2C19 inhibition in human liver microsomes (S-mephenytoin 4-hydroxylation); type: in vitro ADME; settings: 100 μM bergenin, pooled HLMs
Procedure: as §1, §2

CYP2C8 = target: T5, CYP2C8 (Homo sapiens, UniProt P10632); test: CYP2C8 inhibition in human liver microsomes (paclitaxel 6α-hydroxylation); type: in vitro ADME; settings: 100 μM bergenin, pooled HLMs
T5 construct: from tissue; host or cells: pooled human liver microsomes
T5 sequence (P10632 1-490): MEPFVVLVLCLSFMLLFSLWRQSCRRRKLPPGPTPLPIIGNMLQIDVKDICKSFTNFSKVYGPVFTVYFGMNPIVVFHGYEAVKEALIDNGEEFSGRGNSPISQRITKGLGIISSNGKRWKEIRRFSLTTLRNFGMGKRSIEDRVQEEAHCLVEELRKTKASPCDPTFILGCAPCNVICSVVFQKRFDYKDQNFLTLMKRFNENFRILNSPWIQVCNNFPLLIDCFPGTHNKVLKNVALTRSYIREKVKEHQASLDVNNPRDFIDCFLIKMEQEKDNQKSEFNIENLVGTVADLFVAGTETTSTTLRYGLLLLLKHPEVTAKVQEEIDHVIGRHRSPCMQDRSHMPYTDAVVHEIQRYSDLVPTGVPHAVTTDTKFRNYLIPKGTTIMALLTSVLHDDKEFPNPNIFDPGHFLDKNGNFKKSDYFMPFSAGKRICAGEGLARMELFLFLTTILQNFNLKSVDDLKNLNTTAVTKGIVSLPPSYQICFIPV
Procedure: as §1, §2

CYP3A4 [4] = target: T1, CYP3A4; test: Time-dependent inhibition study in HLMs, CYP3A4; type: in vitro ADME
Procedure: (§4) After incubation, an aliquot (20 μL) was transferred to another incubation tube (final volume 200 μL) containing an NADPH-generating system and probe substrates whose final concentrations were approximate to Km. Then, further incubations were performed to measure the residual activity. After being incubated for different time (30 min for CYP2E1 and CYP2C9, 10 min for CYP3A4), the reactions were terminated by adding a 100 μL acetonitrile internal standard mix and then placed on ice; the corresponding metabolites were determined by HPLC.
Figure 7. […] The initial rate constant of inactivation of CYP3A4 by each concentration (Kobs) was determined through linear regression analysis of the natural logarithm of the percentage of remaining activity versus pre-incubation time (A).

CYP2E1 [5] = target: T3, CYP2E1; test: Time-dependent inhibition study in HLMs, CYP2E1; type: in vitro ADME; settings: bergenin 20 μM, pre-incubation with HLM and NADPH for 30 min
Procedure: as §4

CYP2C9 [6] = target: T4, CYP2C9; test: Time-dependent inhibition study in HLMs, CYP2C9; type: in vitro ADME; settings: bergenin 20 μM, pre-incubation with HLM and NADPH for 30 min
Procedure: as §4

[7] = parameters: method as in Pan et al. [2016]; settings: rats, oral dose 100 mg/kg, ref Pan et al. [2016], cited from earlier work
[8] = Lineweaver–Burk plots, pooled HLMs

T4 sequence (P11712 whole entry): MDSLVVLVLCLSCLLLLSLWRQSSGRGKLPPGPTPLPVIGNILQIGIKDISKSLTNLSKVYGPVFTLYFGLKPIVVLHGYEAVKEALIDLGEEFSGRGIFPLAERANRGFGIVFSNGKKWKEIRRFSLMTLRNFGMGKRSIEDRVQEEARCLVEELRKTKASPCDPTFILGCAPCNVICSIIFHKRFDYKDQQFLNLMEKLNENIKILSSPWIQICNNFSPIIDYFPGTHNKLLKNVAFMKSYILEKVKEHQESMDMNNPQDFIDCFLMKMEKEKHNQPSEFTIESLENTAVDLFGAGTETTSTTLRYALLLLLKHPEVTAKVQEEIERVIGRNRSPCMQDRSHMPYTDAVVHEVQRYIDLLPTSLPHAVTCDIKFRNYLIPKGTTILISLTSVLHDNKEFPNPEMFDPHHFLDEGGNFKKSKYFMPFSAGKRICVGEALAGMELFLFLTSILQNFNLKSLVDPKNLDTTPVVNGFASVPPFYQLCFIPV
T3 sequence (P05181 whole entry): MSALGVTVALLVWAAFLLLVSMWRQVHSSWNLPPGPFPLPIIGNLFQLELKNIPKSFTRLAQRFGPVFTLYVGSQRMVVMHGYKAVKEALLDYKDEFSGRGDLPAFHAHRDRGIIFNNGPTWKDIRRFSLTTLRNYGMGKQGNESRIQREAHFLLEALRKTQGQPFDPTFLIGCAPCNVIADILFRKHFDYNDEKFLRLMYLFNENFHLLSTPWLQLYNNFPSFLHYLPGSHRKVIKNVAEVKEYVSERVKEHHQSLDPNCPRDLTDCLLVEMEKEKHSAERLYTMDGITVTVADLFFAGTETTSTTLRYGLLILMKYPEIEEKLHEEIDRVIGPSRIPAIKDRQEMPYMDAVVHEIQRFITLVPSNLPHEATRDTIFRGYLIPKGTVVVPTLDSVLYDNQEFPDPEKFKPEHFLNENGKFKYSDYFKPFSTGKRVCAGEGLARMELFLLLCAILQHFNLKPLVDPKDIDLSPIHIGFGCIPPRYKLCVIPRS
T1 sequence (P08684 whole entry): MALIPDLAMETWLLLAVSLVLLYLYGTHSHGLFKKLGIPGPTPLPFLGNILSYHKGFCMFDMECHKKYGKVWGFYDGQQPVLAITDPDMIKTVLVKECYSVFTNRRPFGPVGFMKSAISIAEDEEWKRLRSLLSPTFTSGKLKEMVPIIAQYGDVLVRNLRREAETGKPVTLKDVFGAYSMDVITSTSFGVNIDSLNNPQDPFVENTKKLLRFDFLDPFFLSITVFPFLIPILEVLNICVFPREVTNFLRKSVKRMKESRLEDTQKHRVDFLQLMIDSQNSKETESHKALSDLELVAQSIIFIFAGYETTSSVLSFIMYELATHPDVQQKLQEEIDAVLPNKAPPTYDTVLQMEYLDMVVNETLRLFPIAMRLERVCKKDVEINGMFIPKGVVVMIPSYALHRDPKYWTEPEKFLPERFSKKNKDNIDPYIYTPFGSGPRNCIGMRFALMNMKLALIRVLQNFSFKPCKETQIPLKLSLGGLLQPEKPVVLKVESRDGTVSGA
Sequence of CYP2C19 (P33261 whole entry): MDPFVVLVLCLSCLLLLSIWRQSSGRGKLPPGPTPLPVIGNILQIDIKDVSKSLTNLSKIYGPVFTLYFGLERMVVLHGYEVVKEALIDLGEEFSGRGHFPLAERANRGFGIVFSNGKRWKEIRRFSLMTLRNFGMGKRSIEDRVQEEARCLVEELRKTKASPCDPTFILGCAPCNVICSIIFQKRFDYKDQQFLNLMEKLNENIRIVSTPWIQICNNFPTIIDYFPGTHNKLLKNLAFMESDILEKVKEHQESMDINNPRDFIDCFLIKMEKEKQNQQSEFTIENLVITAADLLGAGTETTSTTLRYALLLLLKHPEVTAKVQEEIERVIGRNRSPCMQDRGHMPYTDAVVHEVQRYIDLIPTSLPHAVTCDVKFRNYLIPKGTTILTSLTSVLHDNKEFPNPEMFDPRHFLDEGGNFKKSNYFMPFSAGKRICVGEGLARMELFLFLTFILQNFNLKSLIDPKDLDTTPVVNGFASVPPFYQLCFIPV
Sequence of CYP1A2 (P05177 whole entry): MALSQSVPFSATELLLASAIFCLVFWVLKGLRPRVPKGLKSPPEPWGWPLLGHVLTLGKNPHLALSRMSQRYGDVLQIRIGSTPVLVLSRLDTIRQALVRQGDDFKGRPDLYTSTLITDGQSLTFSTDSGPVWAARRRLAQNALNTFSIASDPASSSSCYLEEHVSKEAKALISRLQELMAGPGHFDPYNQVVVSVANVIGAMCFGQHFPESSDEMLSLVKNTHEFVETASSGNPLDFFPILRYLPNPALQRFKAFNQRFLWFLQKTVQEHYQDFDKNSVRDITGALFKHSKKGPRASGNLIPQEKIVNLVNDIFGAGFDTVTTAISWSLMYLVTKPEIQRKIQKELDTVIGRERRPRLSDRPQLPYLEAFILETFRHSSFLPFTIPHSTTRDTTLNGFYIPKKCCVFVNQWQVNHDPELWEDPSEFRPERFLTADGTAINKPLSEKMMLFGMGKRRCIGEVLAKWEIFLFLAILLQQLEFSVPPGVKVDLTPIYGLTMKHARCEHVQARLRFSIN
Sequence of CYP2D6 (P10635 whole entry): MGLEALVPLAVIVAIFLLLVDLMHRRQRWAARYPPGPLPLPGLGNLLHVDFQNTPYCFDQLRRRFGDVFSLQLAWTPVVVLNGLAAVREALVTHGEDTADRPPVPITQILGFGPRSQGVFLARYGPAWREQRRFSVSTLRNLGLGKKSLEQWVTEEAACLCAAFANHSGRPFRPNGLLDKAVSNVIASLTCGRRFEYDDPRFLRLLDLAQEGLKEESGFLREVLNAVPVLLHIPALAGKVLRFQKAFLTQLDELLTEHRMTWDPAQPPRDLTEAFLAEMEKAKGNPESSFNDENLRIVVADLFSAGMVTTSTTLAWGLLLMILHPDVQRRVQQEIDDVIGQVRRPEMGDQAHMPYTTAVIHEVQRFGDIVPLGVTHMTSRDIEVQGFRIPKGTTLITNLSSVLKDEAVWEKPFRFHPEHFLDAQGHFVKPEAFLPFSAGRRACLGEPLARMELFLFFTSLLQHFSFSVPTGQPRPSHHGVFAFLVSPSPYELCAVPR

With `COc1c(O)cc2c(c1O)[C@@H]1O[C@H](CO)[C@@H](O)[C@H](O)[C@H]1OC2=O` [bergenin, Bergenin] as the compound, how does the “Inhibition of CYP1A2 activity” value (CYP1A2) read?
The value was “did not inhibit”.

What about the “Inhibition mode CYP3A4” value (CYP3A4 [1]; [8]) of the same compound?
Its value is “non-competitive”.

What about the activity at 100 μM (CYP3A4 [1]; human, pooled human liver microsomes, pH 7.4, probe testosterone (6β-hydroxylation), read-out: CYP3A4 activity, % of control activity) of the same compound?
The activity at 100 μM was 11%.

And the “Inhibition of CYP2A6 activity” value (CYP2A6)?
Its value is “did not inhibit”.

And the “Inhibition mode CYP2E1” value (CYP2E1 [2]; [8])?
The value was “competitive”.

What about the activity at 100 μM (CYP2E1 [2]; human, pooled human liver microsomes, pH 7.4, probe chlorzoxazone (6-hydroxylation), read-out: CYP2E1 activity, % of control activity) of the same compound?
Its activity at 100 μM is 12.2%.

And the IC50 (CYP2E1 [2]; pooled HLMs, chlorzoxazone 6-hydroxylation)?
Its IC50 is 22.8 µM.

And the Ki (CYP2E1 [2]; pooled HLMs, secondary Lineweaver–Burk plot, chlorzoxazone 25–200 μM)?
The Ki was 11.4 µM.

And the “Inhibition of CYP2D6 activity” value (CYP2D6)?
The value was “did not inhibit”.

What about the “Inhibition mode CYP2C9” value (CYP2C9 [3]; Lineweaver–Burk plots) of the same compound?
The value was “competitive”.

What about the IC50 (CYP2C9 [3]; diclofenac 4′-hydroxylation) of the same compound?
Its IC50 is 15.1 µM.

And the Ki (CYP2C9 [3]; secondary Lineweaver–Burk plot, diclofenac 2–20 μM)?
The Ki was 8.89 µM.

What about the “Inhibition of CYP2C19 activity” value (CYP2C19) of the same compound?
The value was “did not inhibit”.

And the “Inhibition of CYP2C8 activity” value (CYP2C8)?
Its value is “did not inhibit”.

What about the “Time-dependent inhibition, activity of CYP3A4” value (CYP3A4 [4]; bergenin 20 μM, pre-incubation with HLM and NADPH for 30 min) of the same compound?
The value was “decreased with the incubation time”.

What about the “CYP3A4 inactivated each minute” value (CYP3A4 [4]; saturating concentration of bergenin incubated with HLM, implied by Kinact) of the same compound?
The value was “approximately 2.5%”.

And the “Time-dependent inhibition, activity of CYP2E1” value (CYP2E1 [5])?
Its value is “not affected”.

And the “Time-dependent inhibition, activity of CYP2C9” value (CYP2C9 [6])?
The value was “not affected”.

And the “Plasma Cmax” value [7]?
The value was “less than 300 ng/mL”.

What about the Cmax ([7]; read-out: Plasma Cmax) of the same compound?
Its Cmax is under 0.9 µM.
